Measured values from patent US20250195510A1, “NOVEL METHODS” (priority 2022, published 2025).

Columns and labels:
[1] = test system: Serum cytokine concentration; assay: Serum cytokine protein (Multiplex MSD V-Plex) after LPS and lumateperone; format: in vivo, mouse
Experimental: All other reagents are obtained in the highest purity available from Sigma-Aldrich (St. Louis, MO) unless otherwise noted. […] Sigma-Aldrich, ref #0127: B8) diluted in 0.9% injectable saline while control group animals receive injections of all vehicles matching the experimental conditions. […] Tissue Collection. […] Rats are euthanized 18 hours after LPS injection for sample collection. Hippocampi from mice and rats are rapidly dissected under RNAse-free conditions and placed in 1.5 mL Eppendorf tubes. When appropriate, samples are snap frozen in liquid nitrogen prior to storage at −80° C. until further analysis. […] Multiplex Assays. […] All samples are run in duplicates or triplicates according to manufacturer instructions and analyzed with MSD Discovery Workbench software (Meso Scale Diagnostics). […] An additional experimental group receiving an injection with lumateperone alone is included as an additional control. Protein concentration is measured using the Multiplex MSD assay V-Plex technology. Results are expressed in pg/mL, except for IL-6, which is measured in ng/mL.

Sprague-Dawley rats [2] = assay: Novelty Induced Hypophagia (NIH); format: in vivo, rat; conditions: naïve rats, Luma 1 mg/kg IP days 1 and 3; control 65.4
Experimental: (§1) Behavioral Evaluation. All behavioral tests are performed in the morning with adult male Sprague-Dawley rats (n=9-11 per group for the experiments with LPS, and n=13-14 per group for the naïve rats).
Novelty Induced Hypophagia (NIH). This conflict-based behavioral task assesses the impact of environmental stressors on conditioned approach response for a palatable food reward (Ramaker and Dulawa, 2017). Rats are habituated with diluted (1:3 milk/water) sweetened condensed milk which is accessible in their home cage for 1 hour each day for 3 consecutive days. Initially, animals are tested in their home cage under normal lighting. For testing after drug treatment, the latency to drink is recorded after rats are placed in a novel clean cage of the same dimensions with no bedding and under dim lighting (˜50 lux) with white paper under the cages to enhance aversion.
Basal levels of anxiety are also tested using 2 commonly used tests, NSFT and novelty induced hypophagia (NIH), in the absence of LPS. It is well documented that rodents experience increased stress levels when placed in a novel environment (Ramaker and Dulawa, 2017). These two tests exploit this feature by measuring latency to feed in food-deprived rats (NSFT), or latency to receive a reward to which they have been habituated prior to the test (NIH).

Sprague-Dawley rats [3] = assay: Open Field Test (OFT), locomotion; format: in vivo, rat
Experimental: as §1
Open Field Test (OFT). Rats are placed in an open field box (76.5×76.5×40 cm^3) under dim lighting and locomotor activity over a 10 minute period is measured using ANY-Maze Software (Stoelting Co., Wood Dale, IL).

Sprague-Dawley rats [4] = assay: Novelty Suppressed Feeding Test (NSFT); format: in vivo, rat; conditions: naïve rats, Luma 1 mg/kg IP days 1 and 3, no LPS; control 657.8
Experimental: as §1
Novelty Suppressed Feeding Test (NSFT). This test measures consumption of a familiar food in a novel environment, relying on rodents' aversion to eating in a novel environment after a period of food deprivation (Ramaker and Dulawa, “Identifying fast-onset antidepressants using rodent models,” Mol. Psychiatry 22:656-665 (2017)). Rats are food-deprived overnight and placed in an open field (76.5×76.5×40 cm^3) with a small amount of food pellets (6 pellets total). At the time of the test, rats are exposed to the open field for the first time (novelty) and allowed to explore it for a maximum of 15 minutes under red light. The latency for the animal to approach the food pellets and take its first bite is manually scored. A home cage feeding test (HCFT) is performed afterwards to ensure latency measured in NSFT is not a matter of difference in hunger. A home cage food intake analysis evaluated the amount of food eaten (in grams) over a period of 10 minutes following the end of the entire test session.
Basal levels of anxiety are also tested using 2 commonly used tests, NSFT and novelty induced hypophagia (NIH), in the absence of LPS. […]

For `CN1CCN2c3c(cccc31)[C@@H]1CN(CCCC(=O)c3ccc(F)cc3)CC[C@@H]12` [Lumateperone, 4-((6bR,10aS)-3-methyl-2,3,6b,9,10,10a-hexahydro-1H-pyrido[3′,4′: 4,5]pyrrolo[1,2,3-de]quinoxaline-8 (7H)-yl)-1-(4-fluorophenyl)-1-butanone], the “Serum IL-1b concentration” value ([1]; LPS 500 μg/kg + Luma 3 mg/kg, LPS alone 6.27) was 2.69 pg/mL, the “Serum IL-6 concentration” value ([1]; LPS 500 μg/kg + Luma 3 mg/kg, LPS alone 14.52) was 1.49 ng/mL and the “Serum TNF-alpha concentration” value ([1]; LPS 500 μg/kg + Luma 3 mg/kg, LPS alone 335.3) was 56.33 pg/mL. The “Serum IL-10 concentration” value ([1]; LPS 500 μg/kg + Luma 3 mg/kg, LPS alone 980.4) was 1014.3 pg/mL, the “Serum IL-6 concentration” value ([1]; Luma 3 mg/kg alone, no LPS, saline only 0.51) was 0.09 ng/mL and the “Serum IL-1b concentration” value ([1]; Luma 3 mg/kg alone, no LPS, saline only 1.32) was 1.47 pg/mL. The “Serum TNF-alpha concentration” value ([1]; Luma 3 mg/kg alone, no LPS, saline only 14.08) was 9.38 pg/mL, the “Serum IL-10 concentration” value ([1]; Luma 3 mg/kg alone, no LPS, saline only 24.80) was 48.93 pg/mL and the “NIH - novel cage latency to drink” value (Sprague-Dawley rats [2]) was 30.5 s. The OFT locomotion (Sprague-Dawley rats [3]; naïve rats, Luma 1 mg/kg IP days 1 and 3, control 17.2) was 32.8 m, the “OFT locomotion (distance travelled)” value (Sprague-Dawley rats [3]; open field track length, rats, LPS 1 mg/kg SC + Luma 1 mg/kg IP, control 13.29, LPS + Vehicle 12.81) was 12.27 meters and the “NSFT latency to feed” value (Sprague-Dawley rats [4]) was 507.9 s.
